Here are results for 106 compounds from PubChem BioAssay AID608 (Sanford-Burnham Center for Chemical Genomics, 2007).

Active and inactive are the calls of the source. The rule behind the calls is not given here.

In general, Kd refers to the equilibrium constant for the complex coming apart.

In this assay the target is Peptidyl-prolyl cis-trans isomerase FKBP1A (Homo sapiens) (UniProt P62942). In words: FKBP12 binders, biophysical, NMR detection (AID 608). The settings on record: NMR binding, purified FKBP12.
Peptidyl-prolyl cis-trans isomerase FKBP1A (Homo sapiens), sequence (P62942 whole entry, looked up): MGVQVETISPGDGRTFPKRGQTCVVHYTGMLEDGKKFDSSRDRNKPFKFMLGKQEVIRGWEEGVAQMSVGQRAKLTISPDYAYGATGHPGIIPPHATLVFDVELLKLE
For the compound `Cc1cc(C)n(-c2nc(N)cc(=O)[nH]2)n1`, the Kd was > 4 mM (inactive). In the case of `O=C(COc1ccccc1O)NCCO`, the Kd is > 4 mM (inactive). The same measure for `c1nnc2c3c4c(sc3ncn12)CCCC4`: > 4 mM (inactive); for `O=C(O)c1ccc(Oc2ccccc2)nc1`: > 4 mM (inactive); for `NC(=O)CSc1nnc2ccc3ccccc3n12`: > 4 mM (inactive). As for `COc1ccc2c(c1)=C(c1sc(N)nc1O)C(=O)N=2`, the figure is > 4 mM (inactive).

`O=C(NCN1CCOCC1)c1cnccn1`: the Kd is > 4 mM (inactive). Regarding `CC(=O)c1cc(CN2C(=O)c3ccccc3C2=O)cs1`, the Kd was > 4 mM (inactive). Take `CC1CCC2(OC1)OC1CC3C4CC[C@H]5C[C@@H](O)CC[C@]5(C)C4CC(=O)[C@]3(C)C1C2C` (stereo partly specified): the Kd is > 4 mM (inactive). As for `CC1NC(C(=O)O)Cc2c1[nH]c1ccccc21` (stereo unspecified), the Kd is > 4 mM (inactive).

For the compound `COc1ncccc1N`, the Kd is > 4 mM (inactive). As for `C=CCNC(=O)c1ccc(Cl)cc1Cl`, the figure is > 4 mM (inactive).

As for `COC(=O)c1ccc(C(=S)N2CCOCC2)cc1`, the Kd is > 4 mM (inactive). Regarding `O=C(O)CCn1cncn1`, the Kd was > 4 mM (inactive). The same measure for `COc1cccc(OCC(=O)N2CCOCC2)c1`: “inactive”; for `O=C1CCC(=O)N1c1cccnc1`: > 4 mM (inactive). Regarding `N#Cc1c(N)c(C(=O)c2ccccc2)n2c1CCC2`, the Kd was > 4 mM (inactive).

Regarding `COc1ccc2c(c1)O[C@@H]1COc3cc(OC)c(OC)cc3[C@@H]1C2=O`, the Kd is > 4 mM (inactive).

On to `COCc1cc(Cl)nc(-c2csc(C)n2)n1`, for which the Kd was > 4 mM (inactive). The same measure for `Cc1cc(C)nc(NC(N)=NCc2ccco2)n1`: > 4 mM (inactive); for `O=S1(=O)CCC(NC(=S)N2CCCCC2)C1` (stereo unspecified): > 4 mM (inactive); for `CSc1cccc(NC(=O)c2c(Cl)cnn2C)c1`: > 4 mM (inactive).

For the compound `O=[n+]1c(CO)c(CO)n([O-])c2ccccc21`, the Kd was > 4 mM (inactive).

For the compound `CCC(C)OC1CCS(=O)(=O)C1` (stereo unspecified), the Kd is > 4 mM (inactive).

Consider `O=C(/C=C/c1ccc(O)c(O)c1)O[C@@H]1C[C@](O)(C(=O)O)C[C@@H](O)[C@H]1O`, for which the Kd was > 4 mM (inactive).

Take `CC[C@H]1CN2CCc3cc(OC)c(OC)cc3C2C[C@@H]1CC1NCCc2cc(OC)c(OC)cc21` (stereo partly specified): the Kd is > 4 mM (inactive). As for `Cc1cc(C)n2c(SCc3cccs3)nnc2n1`, the Kd was > 4 mM (inactive). On to `COCCn1c(SC)nc2c1c(=O)[nH]c(=O)n2C`, for which the Kd is > 4 mM (inactive). As to `CC(=O)O[C@H]1C[C@@]2(C)[C@@H](C[C@@H](O)C3[C@]2(C)CC[C@H]2[C@H](C)[C@H](O)CC[C@]32C)/C1=C(/CCC=C(C)C)C(=O)O` (stereo partly specified), the Kd is > 4 mM (inactive).

As to `Cc1ccc(NC(=O)C(=O)Nc2ccccn2)cc1`, the Kd was > 4 mM (inactive). As for `C(=N\c1nccs1)/c1cccnc1`, the figure is > 4 mM (inactive); as for `CCC[C@@H]1CCCCN1`, > 4 mM (inactive); as for `CN(C)c1nc(N2CCOCC2)nc(N2CCOCC2)n1`, > 4 mM (inactive). The same measure for `CN(C)N1C(=O)C2C3C=CC(O3)C2C1=O` (stereo unspecified): > 4 mM (inactive); for `COc1ccc(Cl)cc1NC(=O)C(N)=O`: > 4 mM (inactive). Take `Cc1cc(C)n(CC(=O)O)n1`: the Kd is > 4 mM (inactive).

For the compound `COc1ccc2c(c1)OC1(O)COc3cc(OC)c(OC)cc3C1=C2` (stereo unspecified), the Kd is > 4 mM (inactive).

On to `CC1CCC2(OC1)OC1CC3C4CCC5C[C@@H](O)CCC5(C)C4=CCC3(C)C1[C@@H]2C` (stereo partly specified), for which the Kd was > 4 mM (inactive). The same measure for `CCCN1CCC(N2CCC(O)CC2)CC1`: > 4 mM (inactive); for `O=C(O)c1cccc2c1OCC2`: > 4 mM (inactive). For the compound `O=C(c1ccc(F)cc1)N1CCN(c2ncccn2)CC1`, the Kd is > 4 mM (inactive). As for `COc1cccc(N2CCN(C(=O)c3cccnc3)CC2)c1`, the figure is > 4 mM (inactive); as for `Cc1nc(N)sc1C(=O)Nc1nccs1`, > 4 mM (inactive); as for `O=c1[nH]cc(NCc2ccccc2)c(=O)[nH]1`, > 4 mM (inactive). As for `Nc1ccc(Oc2ccccc2)nc1`, the figure is > 4 mM (inactive); as for `O=C(O)c1scc2c1CCCC2`, > 4 mM (inactive). In the case of `COc1ccc(/C=C2/SC(N)=NC2=O)c(OC)c1`, the Kd was > 4 mM (inactive). For `O=c1c(O)c(-c2ccccc2)oc2ccc3occc3c12`, the Kd is > 4 mM (inactive). With `Cc1cc(C)n2nc(SCC(=O)c3ccccc3)nc2n1`, the Kd is > 4 mM (inactive). As for `CC1CN(C(=O)c2ccncc2)CC(C)O1` (stereo unspecified), the figure is > 4 mM (inactive); as for `CC(=O)Nc1ccc2c(c1)C(=O)N(C1CCCCC1)C2=O`, > 4 mM (inactive); as for `O=c1c(-c2cc(O)c(O)c(O)c2)coc2cc(O)c(O)c(O)c12`, > 4 mM (inactive).

Consider `COC(=O)N1CCN(c2ccc(OC)cc2)CC1`, for which the Kd was > 4 mM (inactive). Take `O=C(Nc1cnccn1)c1cccnc1`: the Kd is > 4 mM (inactive).

`O=C(c1ccco1)N1CCNCC1`: the Kd was > 4 mM (inactive). In the case of `NCc1ccc(-c2cccs2)s1`, the Kd is > 4 mM (inactive). The same measure for `Cc1ccc(N2C(=O)C3C4C=CC(O4)C3C2=O)cc1` (stereo unspecified): > 4 mM (inactive); for `O=c1cccc2n1CC1CC2CN2CCCC[C@@H]12` (stereo partly specified): > 4 mM (inactive). As to `COc1cccc(Oc2ccc(N)cn2)c1`, the Kd is > 4 mM (inactive). Take `O=c1[nH]c(=O)n(-c2ccc(F)cc2)c(O)c1/C=C1/C=CC=N1`: the Kd is > 4 mM (inactive). The same measure for `CCc1cc2c(SCC(=O)O)ncnc2s1`: > 4 mM (inactive); for `O=C(O)c1cc(F)cc2c1OCOC2`: > 4 mM (inactive); for `CN(C)C(=O)CCNS(=O)(=O)c1ccccc1`: > 4 mM (inactive). As for `C=C1C2=CC(=O)O[C@@H](c3ccoc3)[C@]2(C)CCC1[C@@]1(C)C=CC(=O)C(C)(C)[C@@H]1CC(=O)OC` (stereo partly specified), the figure is > 4 mM (inactive); as for `CC(=O)c1cnc2nc(C(F)(F)F)nn2c1C`, > 4 mM (inactive); as for `Clc1ccc(-c2noc(CN3CCCC3)n2)cc1`, > 4 mM (inactive). The same measure for `Nc1ccc2ncsc2c1`: > 4 mM (inactive); for `O=C(Nc1ccccc1)c1cnc2n(c1=O)CCS2`: > 4 mM (inactive); for `Nc1cccc2nonc12`: > 4 mM (inactive).

For `O=C(O)/C=C(\CC(=O)O)C(=O)O`, the Kd was > 4 mM (inactive). The same measure for `CC(C)C1COc2cc3oc(=O)ccc3cc2O1` (stereo unspecified): > 4 mM (inactive); for `CN1CCN(CC(=O)N2CCc3ccccc32)CC1`: > 4 mM (inactive). `Cc1c(C(=O)Nc2ccccc2)sc(N)c1C(N)=O`: the Kd was > 4 mM (inactive). The same measure for `NC(=O)c1ccc(C(N)=O)c(-c2ccccc2)c1`: > 4 mM (inactive); for `Nc1cc(-c2ccco2)[nH]n1`: > 4 mM (inactive). The same measure for `OCc1ccc2ncccc2c1`: > 4 mM (inactive). The same measure for `OCc1ccc2nonc2c1`: > 4 mM (inactive).

Turning to `O=c1[nH]nnc2sc3c(c12)CCCC3`, the Kd was > 4 mM (inactive). In the case of `Cc1nnc(C)n1/N=C/c1cccs1`, the Kd was > 4 mM (inactive). The same measure for `Cc1ccc(N2NC(=O)CC2=O)cc1C`: > 4 mM (inactive). As for `COc1cc(C(C)=O)cc(OC)c1O`, the figure is > 4 mM (inactive); as for `Cc1ccc(NS(=O)(=O)N2CCOCC2)cc1Cl`, “inactive”; as for `NC12CC3CC(C1)CC(CC(=O)O)(C3)C2`, > 4 mM (inactive). Turning to `CC(=O)Nc1sccc1C(N)=O`, the Kd is > 4 mM (inactive). As for `Cn1[nH]c(C(F)(F)F)cc1=O`, the figure is > 4 mM (inactive); as for `Cc1c(C(=O)NC2=NCCS2)oc2ccccc12`, > 4 mM (inactive). The same measure for `CC(C)CC(=O)NC1CCSC1=O` (stereo unspecified): > 4 mM (inactive).

For the compound `CC(=O)O[C@@H]1CC2C(C)(C)C(=O)C=C[C@]2(C)C2CC[C@]3(C)C(=CC(=O)O[C@H]3c3ccoc3)[C@@]21C` (stereo partly specified), the Kd was > 4 mM (inactive). In the case of `Cc1cc(C(=O)NCc2ccco2)cs1`, the Kd is > 4 mM (inactive). As for `O=C(Nc1ccon1)c1cc2c(s1)CCCC2`, the figure is > 4 mM (inactive); as for `Cc1cc(C)cc(OC(=O)N2CCOCC2)c1`, > 4 mM (inactive); as for `Cc1occc1C(=O)NCc1ccccc1F`, > 4 mM (inactive). In the case of `CSc1nnc(-c2ccccc2NC(C)=O)o1`, the Kd is > 4 mM (inactive). With `CN1CCN(c2ccc(C(=O)O)cc2)CC1`, the Kd was > 4 mM (inactive). Take `O=c1nc(C(F)(F)F)nc2ccccn12`: the Kd was > 4 mM (inactive). As for `O=C(O)CN(CCCc1ccccc1)CC(=O)O`, the figure is > 4 mM (inactive); as for `CC(=O)C1CCC2C3CCC4C[C@H](O)CCC4(C)C3C[C@H](O)C12C` (stereo partly specified), > 4 mM (inactive).

For the compound `NC(=O)c1cc(Cl)c(C(N)=O)cc1Cl`, the Kd was > 4 mM (inactive). As for `O=C(O)C1Cc2ccccc2N1` (stereo unspecified), the figure is > 4 mM (inactive); as for `Cc1cc(C)c(C)c(OCC(=O)N2CCOCC2)c1`, “inactive”; as for `O=C1CNC(=O)N1c1cccc(Cl)c1`, > 4 mM (inactive). The same measure for `CC(=O)NC(=S)Nc1nc2ccccc2n1C(C)=O`: > 4 mM (inactive); for `CCOc1ccc(C)cc1S(=O)(=O)n1ccnc1`: > 4 mM (inactive). The same measure for `Cc1cccc(NS(=O)(=O)c2cccs2)n1`: > 4 mM (inactive); for `Nc1ccc(S(=O)(=O)N2CCCCC2)cc1`: > 4 mM (inactive); for `O=CN1CCN(C(=O)c2ccccc2Cl)CC1`: > 4 mM (inactive).
